According to patent publication US20250035634A1, “A METHOD FOR DETECTING CLUSTERING OF RAS PROTEIN” (Nanyang Technological University, priority 2021, published 2025):

How the values were obtained:
ASPC-1 cells = settings: 24 hrs, read-out: IC50, MTT assay growth inhibition; cited from earlier work
KRasG12V = target: T1, KRasG12V (Homo sapiens, UniProt P01116, G12V); experiment: nanobar-guided KRasG12V clustering (Enrichment Index) in U2OS cells; format: cell-based; settings: for Enrichment Index (EI) of KRasG12V: mean±s.e.m.
T1 construct: through full-length KRasG12V, HRasG12V and the truncated Ras isoforms tK-Ras and tH-Ras; expressed in transfected cells; host or cells: U2OS
Text: Arrays of nanostructures on SiO2 surface of bar shape are fabricated with two curved ends and flat sidewalls using electron beam lithography (EBL). […] To conduct EBL, the chips are spin-coated with an electron-sensitive layer, 300 nm of positive electron-beam resist poly (methyl methacrylate) (PMMA) (MicroChem), followed by a conductive polymer layer of AR-PC 5090.02 (Allresist). Desired patterns are then written on the polymer through exposure to EBL (FEI Helios NanoLab), and developed in isopropanol:methylisobutylketone (IPA:MIBK)=3:1 solution. Subsequently, a 30-nm chromium (Cr) mask is deposited onto the surface via thermal evaporation (UNIVEX 250 Benchtop) and lift-off in acetone. Nanostructures are generated through reactive ion etching with the mixture of CF4 and CHF3 (Oxford Plasmalab 80). After fabrication, scanning electron microscopy (SEM) (FEI Helios NanoLab) imaging can be performed after 10-nm Cr coating to measure the dimensional properties of nanostructures (FIG. 1, top). Before use, the nanostructured-chip is cleaned by Chromium Etchant (Sigma-Aldrich) to remove the remaining metal layer.
To culture the cells onto the nanostructured chip, the chip is first cleaned by air plasma treatment (Harrick Plasma) and sterilized by UV radiation. Additional coating reagents like extracellular matrix (ECM) protein components (e.g., fibronectin or gelatin, Sigma-Aldrich) can be added to promote cell attachment. After coating, the cells are plated and maintained in DMEM (Gibco) supplemented with fetal bovine serum (FBS, Life Technologies) and Penicillin-Streptomycin (Life Technologies) in a standard incubator at 37° C. with 5% CO2.
The Ras proteins can be expressed transiently by transfecting the fluorescent protein-tagged Ras plasmid (e.g., EGFP-KRasG12V, EGFP, enhanced green fluorescent protein) into cells using the Lipofectamine (Life Technologies) protocol or electroporation (e.g., Neon Transfection System, Thermo Fisher). If necessary, the transfection parameters (e.g., the amount of the plasmid, starvation time and expression time) and electroporation parameters (e.g., pulse voltage, pulse width, pulse number) can be optimized to reach the expected transfection efficiency and expression level. FBS can be removed at the expression step from the culture medium to prevent Ras activation.
To evaluate the effect of a Ras inhibitor on disrupting the Ras clusters, a gradient concentration and several treatment durations can be selected to determine the effective window. A control group with no treatment should be conducted at the same time. Before and after treatment of the same batch of cells can also be compared.
Cell imaging is performed with laser scanning confocal microscopy (Zeiss LSM 800 with Airyscan) and a Plan-Apochromat 100×/1.4 oil objective. EGFP is excited at 488 nm and detected at 490-570 nm. RFP is excited at 561 nm and detected at 570-645 nm. Images were taken with a resolution of 512×512 pixels, 16-bit and 124 nm pixel size. A scanning speed of 20 s/image and an averaging mode of 4 times/line can be applied. During imaging, the cells are maintained in live cell imaging solution (Thermo Fisher) at 37° C. in an on-stage incubator. […] The images are conducted with a single snap shot for display of Ras variants and the quantification. For the imaging of co-expressed K-Ras variants and CRaf-RBD, z-stack images can be taken and averaged for display and the intensity profiles. The calculation of Pearson correlation coefficient is also based on single snap shot.
To quantify the nanobar-guided clustering of Ras variants, the fluorescence intensity ratio at the nanobar end to the flat sidewall (i.e. Enrichment Index, EI) is calculated. The background signals of each image are firstly subtracted by the rolling ball algorithm in ImageJ (radius=3 pixels for 250 nm diameter nanobars). Next, the nanobars covered by the cell to be analyzed are identified by a custom-written MATLAB (MathWorks) code. […]

Calu-1 cells = settings: 24 hrs, read-out: IC50, MTT assay growth inhibition; cited from earlier work
HCT-116 cells = settings: 24 hrs, read-out: IC50, MTT assay growth inhibition; cited from earlier work
HRasG12V = target: T2, HRasG12V (Homo sapiens, UniProt P01112, G12V); experiment: nanobar-guided HRasG12V clustering (Enrichment Index) in U2OS cells; format: cell-based
T2 construct: through full-length KRasG12V, HRasG12V and the truncated Ras isoforms tK-Ras and tH-Ras; expressed in transfected cells; host or cells: U2OS
Text: Arrays of nanostructures on SiO2 surface of bar shape are fabricated with two curved ends and flat sidewalls using electron beam lithography (EBL). […] To conduct EBL, the chips are spin-coated with an electron-sensitive layer, 300 nm of positive electron-beam resist poly (methyl methacrylate) (PMMA) (MicroChem), followed by a conductive polymer layer of AR-PC 5090.02 (Allresist). Desired patterns are then written on the polymer through exposure to EBL (FEI Helios NanoLab), and developed in isopropanol:methylisobutylketone (IPA:MIBK)=3:1 solution. Subsequently, a 30-nm chromium (Cr) mask is deposited onto the surface via thermal evaporation (UNIVEX 250 Benchtop) and lift-off in acetone. […]
Cell imaging is performed with laser scanning confocal microscopy (Zeiss LSM 800 with Airyscan) and a Plan-Apochromat 100×/1.4 oil objective. EGFP is excited at 488 nm and detected at 490-570 nm. RFP is excited at 561 nm and detected at 570-645 nm. […] The images are conducted with a single snap shot for display of Ras variants and the quantification. […]
To quantify the nanobar-guided clustering of Ras variants, the fluorescence intensity ratio at the nanobar end to the flat sidewall (i.e. Enrichment Index, EI) is calculated. […] Next, the nanobars covered by the cell to be analyzed are identified by a custom-written MATLAB (MathWorks) code. […]

K-Ras = target: T3, K-Ras (Homo sapiens, UniProt P01116); settings: Hela cells, 4 hrs; read-out: IC50, NanoBit assay measuring K-Ras activation; cited from earlier work
T3 construct: host or cells: HeLa

SMILES: COc1ccc([C@@]23Oc4cc(OC)cc(OC)c4[C@]2(O)[C@H](O)[C@H](C(=O)N(C)C)[C@H]3c2ccccc2)cc1 [rocaglamide]
- IC50 (ASPC-1 cells): 10.2 nM
- detection limit: concentration at which effect on KRasG12V clustering is detected (KRasG12V; 1 hr treatment): 25 nM
- IC50 (KRasG12V; KRasG12V, 1 hr, one-phase decay fit of EI, read-out: IC50 of the nanobar assay, effect on K-Ras clustering): 18.4 nM
- effect on bar-end accumulated clustering of KRasG12V (KRasG12V; drug treatment vs DMSO, U2OS cells on nanobars): significant reduction
- Enrichment Index (EI) of KRasG12V (KRasG12V; rocaglamide 25 nM, 1 hr): 1.64±0.018
- detection time: treatment time giving significant reduction of KRasG12V clustering (KRasG12V; rocaglamide 50 nM): 15 min
- Enrichment Index (EI) of KRasG12V (KRasG12V; rocaglamide 50 nM, 15 mins): 1.72±0.032
- Enrichment Index (EI) of KRasG12V (KRasG12V; rocaglamide 50 nM, 1 hr): 1.55±0.021
- Enrichment Index (EI) of KRasG12V (KRasG12V; rocaglamide 50 nM, 4 hrs): 1.64±0.024
- Enrichment Index (EI) of KRasG12V (KRasG12V; rocaglamide 100 nM, 1 hr, U2OS cells): 1.58±0.027
- IC50 (Calu-1 cells): 11.9 nM
- IC50 (HCT-116 cells): 9.47 nM
- Enrichment Index (EI) of HRasG12V (HRasG12V; rocaglamide 100 nM, 4 hrs, U2OS cells, mean±s.e.m.): 1.87±0.029
- effect on bar-end accumulated clustering of HRasG12V (HRasG12V; same drug treatment vs DMSO, U2OS cells on nanobars): no obvious changes
- IC50 (K-Ras): 24.8 nM
